This test deals with T1, rabbit muscle glycogen phosphorylase (Oryctolagus cuniculus, UniProt P00489).
T1 construct: gene PYGM
T1 sequence (P00489 2-843): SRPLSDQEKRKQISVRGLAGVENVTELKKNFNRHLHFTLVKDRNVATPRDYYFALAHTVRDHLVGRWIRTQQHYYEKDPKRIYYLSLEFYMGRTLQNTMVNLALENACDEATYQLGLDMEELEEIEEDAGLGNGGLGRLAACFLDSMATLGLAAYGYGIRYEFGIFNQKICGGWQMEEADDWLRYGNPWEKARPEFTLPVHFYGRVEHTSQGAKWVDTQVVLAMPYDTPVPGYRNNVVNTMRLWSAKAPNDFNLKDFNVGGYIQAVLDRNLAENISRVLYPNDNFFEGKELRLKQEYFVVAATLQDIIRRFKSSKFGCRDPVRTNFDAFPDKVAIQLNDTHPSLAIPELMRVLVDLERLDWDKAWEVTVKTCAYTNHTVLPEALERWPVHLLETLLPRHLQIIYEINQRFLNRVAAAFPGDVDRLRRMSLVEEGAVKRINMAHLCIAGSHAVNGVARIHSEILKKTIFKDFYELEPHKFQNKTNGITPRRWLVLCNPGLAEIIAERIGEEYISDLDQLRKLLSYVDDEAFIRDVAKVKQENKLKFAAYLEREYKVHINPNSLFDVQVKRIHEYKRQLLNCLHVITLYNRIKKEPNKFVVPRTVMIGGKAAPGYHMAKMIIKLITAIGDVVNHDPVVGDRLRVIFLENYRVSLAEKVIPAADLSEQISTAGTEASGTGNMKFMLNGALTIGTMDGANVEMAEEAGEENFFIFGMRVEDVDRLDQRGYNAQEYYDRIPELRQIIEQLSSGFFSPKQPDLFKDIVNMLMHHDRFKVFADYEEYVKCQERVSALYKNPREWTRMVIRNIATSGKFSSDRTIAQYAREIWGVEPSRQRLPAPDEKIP
Put plainly: enzyme kinetics on purified rabbit muscle glycogen phosphorylase. Type of test: biochemical.

For orientation: Ki means the equilibrium dissociation constant of an inhibitor or competing ligand from its target. In turn, `Cc1cc(C)cc(C(=O)NC(=O)N[C@@H]2O[C@H](CO)[C@@H](O)[C@H](O)[C@H]2O)c1` [compound 4, N-(3,5-dimethyl-benzoyl)-N’-(β-D-glucopyranosyl)urea] had a Ki of 930 ± 50 nM.

The record behind these values is paper PMC3723905, “Glycogen Phosphorylase Inhibitor N-(3,5-Dimethyl-Benzoyl)-N’-(β-D-Glucopyranosyl)Urea Improves Glucose Tolerance under Normoglycemic and Diabetic Conditions and Rearranges Hepatic Metabolism” (PLoS ONE, 2013).
